This note sets out measurements from ChEMBL document CHEMBL5608189, “Design and synthesis of unique indole-benzosulfonamide oleanolic acid derivatives as potent antibacterial agents against MRSA” (Eur J Med Chem, 2024).

What all share (assay type): functional
The subject of assay [1] is Staphylococcus aureus. The assay can be described thus: Antibacterial activity against methicillin-resistant Staphylococcus aureus measured after 24 hrs by susceptibility assay.
Assay [2] relates to Staphylococcus epidermidis. The assay can be described thus: Antibacterial activity against Staphylococcus epidermidis ATCC 12228 measured after 24 hrs by susceptibility assay.
Assay [3] relates to Staphylococcus aureus. The assay can be described thus: Antibacterial activity against Staphylococcus aureus ATCC 6538 measured after 24 hrs by susceptibility assay.
Assay [4] has as its system Staphylococcus aureus. The assay can be described thus: Antibacterial activity against Staphylococcus aureus ATCC 29213 measured after 24 hrs by susceptibility assay.

Converted amounts (≈) assume the structure as drawn.

As to `CC1(C)CC[C@]2(C(=O)NS(=O)(=O)c3ccc(Cl)cc3)CC[C@]3(C)C(=CC[C@@H]4[C@@]5(C)CCC(=O)C(C)(C)[C@@H]5CC[C@]43C)[C@@H]2C1`, the MIC in assay [1] was determined as 32 µM (≈ 20.1 µg/mL); in assay [2] it was 4 µM (≈ 2.51 µg/mL); in assay [3], 4 µM (≈ 2.51 µg/mL); in assay [4] it was 8 µM (≈ 5.03 µg/mL).
As for `COc1ccc(S(=O)(=O)NC(=O)[C@]23CCC(C)(C)C[C@H]2C2=CC[C@@H]4[C@@]5(C)Cc6c([nH]c7cc(C(=O)O)ccc67)C(C)(C)[C@@H]5CC[C@@]4(C)[C@]2(C)CC3)cc1`, the MIC stood at 4 µM (≈ 2.96 µg/mL) in assay [1], 2 µM (≈ 1.48 µg/mL) in assay [2], 1 µM (≈ 0.741 µg/mL) in assay [3] and 4 µM (≈ 2.96 µg/mL) in assay [4].
As to `CC1(C)CC[C@]2(C(=O)NS(=O)(=O)c3ccc(C(=O)O)cc3)CC[C@]3(C)C(=CC[C@@H]4[C@@]5(C)Cc6c([nH]c7ccc(C(=O)O)cc67)C(C)(C)[C@@H]5CC[C@]43C)[C@@H]2C1`, the minimum inhibitory concentration (MIC) in assay [1], in assay [2], in assay [3] and in assay [4] was 64 µM (≈ 48.3 µg/mL) each time.
Turning to `CC1(C)CC[C@]2(C(=O)NS(=O)(=O)c3ccc(C(=O)O)cc3)CC[C@]3(C)C(=CC[C@@H]4[C@@]5(C)Cc6c([nH]c7cccc(C(=O)O)c67)C(C)(C)[C@@H]5CC[C@]43C)[C@@H]2C1`, the MIC in assay [1] came to 256 µM (≈ 193 µg/mL); in assay [2], 256 µM (≈ 193 µg/mL); in assay [3], 64 µM (≈ 48.3 µg/mL); in assay [4] it was 128 µM (≈ 96.6 µg/mL).
Regarding `CC1(C)CC[C@]2(C(=O)NS(=O)(=O)c3ccccc3)CC[C@]3(C)C(=CC[C@@H]4[C@@]5(C)Cc6c([nH]c7ccc(Cl)cc67)C(C)(C)[C@@H]5CC[C@]43C)[C@@H]2C1`, the MIC in assay [1], in assay [2], in assay [3] and in assay [4] was over 256 µM each time.
For `CN[C@H](CC(C)C)C(=O)N[C@H]1C(=O)N[C@@H](CC(N)=O)C(=O)N[C@H]2C(=O)N[C@H]3C(=O)N[C@H](C(=O)N[C@H](C(=O)O)c4cc(O)cc(O)c4-c4cc3ccc4O)[C@H](O)c3ccc(c(Cl)c3)Oc3cc2cc(c3O[C@@H]2O[C@H](CO)[C@@H](O)[C@H](O)[C@H]2O[C@H]2C[C@](C)(N)[C@H](O)[C@H](C)O2)Oc2ccc(cc2Cl)[C@H]1O` [VANCOMYCIN], the MIC in assay [1], in assay [2], in assay [3] and in assay [4] was 0.5 µM (≈ 0.725 µg/mL) each time.
With `Cc1ccc(S(=O)(=O)NC(=O)[C@]23CCC(C)(C)C[C@H]2C2=CC[C@@H]4[C@@]5(C)Cc6c([nH]c7cc(C(=O)O)ccc67)C(C)(C)[C@@H]5CC[C@@]4(C)[C@]2(C)CC3)cc1`, the MIC in assay [1] was 2 µM (≈ 1.45 µg/mL); in assay [2], 1 µM (≈ 0.725 µg/mL); in assay [3] it was 1 µM (≈ 0.725 µg/mL); in assay [4], 2 µM (≈ 1.45 µg/mL).
As to `CC1(C)CC[C@]2(C(=O)Nc3ccc(-c4ccccc4)cc3)CC[C@]3(C)C(=CC[C@@H]4[C@@]5(C)Cc6c([nH]c7ccc(C(=O)O)cc67)C(C)(C)[C@@H]5CC[C@]43C)[C@@H]2C1`, the MIC in assay [1], in assay [2], in assay [3] and in assay [4] was over 256 µM throughout.
`CC1(C)CC[C@]2(C(=O)NS(=O)(=O)c3ccc(C(=O)O)cc3)CC[C@]3(C)C(=CC[C@@H]4[C@@]5(C)Cc6c([nH]c7cc(C(=O)O)ccc67)C(C)(C)[C@@H]5CC[C@]43C)[C@@H]2C1`: the MIC was found to be 2 µM (≈ 1.51 µg/mL) in assay [1], 4 µM (≈ 3.02 µg/mL) in assay [2], 1 µM (≈ 0.755 µg/mL) in assay [3] and 2 µM (≈ 1.51 µg/mL) in assay [4].
With `CC(=O)c1cccc2[nH]c3c(c12)C[C@]1(C)[C@H]2CC=C4[C@@H]5CC(C)(C)CC[C@]5(C(=O)NS(=O)(=O)c5ccccc5)CC[C@@]4(C)[C@]2(C)CC[C@H]1C3(C)C`, the MIC in assay [1] was 4 µM (≈ 2.84 µg/mL); in assay [2] it was 2 µM (≈ 1.42 µg/mL); in assay [3] it was 4 µM (≈ 2.84 µg/mL); in assay [4] it was 4 µM (≈ 2.84 µg/mL).
Consider `CN1CCN(C(=O)[C@]23CCC(C)(C)C[C@H]2C2=CC[C@@H]4[C@@]5(C)Cc6c([nH]c7cccc(C(=O)O)c67)C(C)(C)[C@@H]5CC[C@@]4(C)[C@]2(C)CC3)CC1`, for which the MIC in assay [1], in assay [2], in assay [3] and in assay [4] was over 256 µM throughout.
As to `CN1CCN(C(=O)[C@]23CCC(C)(C)C[C@H]2C2=CC[C@@H]4[C@@]5(C)CCC(=O)C(C)(C)[C@@H]5CC[C@@]4(C)[C@]2(C)CC3)CC1`, the MIC in assay [1] is over 256 µM; in assay [2] it was 64 µM (≈ 34.4 µg/mL); in assay [3] it was 64 µM (≈ 34.4 µg/mL); in assay [4] it was 32 µM (≈ 17.2 µg/mL).
Take `CC1(C)CC[C@]2(C(=O)Nc3ccc(-c4ccccc4)cc3)CC[C@]3(C)C(=CC[C@@H]4[C@@]5(C)Cc6c([nH]c7c(C(=O)O)cccc67)C(C)(C)[C@@H]5CC[C@]43C)[C@@H]2C1`: the MIC in assay [1], in assay [2], in assay [3] and in assay [4] was over 256 µM in each case.
Take `CC1(C)CC[C@]2(C(=O)NS(=O)(=O)c3ccc(C(=O)O)cc3)CC[C@]3(C)C(=CC[C@@H]4[C@@]5(C)CCC(=O)C(C)(C)[C@@H]5CC[C@]43C)[C@@H]2C1`: the MIC in assay [1] was determined as 256 µM (≈ 163 µg/mL); in assay [2] it was 256 µM (≈ 163 µg/mL); in assay [3], 64 µM (≈ 40.8 µg/mL); in assay [4], 128 µM (≈ 81.6 µg/mL).
Take `CC1(C)CC[C@]2(C(=O)NS(=O)(=O)c3ccc(Cl)cc3)CC[C@]3(C)C(=CC[C@@H]4[C@@]5(C)Cc6c([nH]c7cccc(C(=O)O)c67)C(C)(C)[C@@H]5CC[C@]43C)[C@@H]2C1`: the MIC in assay [1] worked out at 2 µM (≈ 1.49 µg/mL); in assay [2], 2 µM (≈ 1.49 µg/mL); in assay [3] it was 1 µM (≈ 0.745 µg/mL); in assay [4], 2 µM (≈ 1.49 µg/mL).
Turning to `Cc1ccc(S(=O)(=O)NC(=O)[C@]23CCC(C)(C)C[C@H]2C2=CC[C@@H]4[C@@]5(C)CCC(=O)C(C)(C)[C@@H]5CC[C@@]4(C)[C@]2(C)CC3)cc1`, the MIC in assay [1], in assay [2], in assay [3] and in assay [4] was over 256 µM in each case.
In the case of `CN1CCN(C(=O)[C@]23CCC(C)(C)C[C@H]2C2=CC[C@@H]4[C@@]5(C)Cc6c([nH]c7c(C(=O)O)cccc67)C(C)(C)[C@@H]5CC[C@@]4(C)[C@]2(C)CC3)CC1`, the MIC in assay [1] is over 256 µM; in assay [2] it was 128 µM (≈ 83.7 µg/mL); in assay [3], over 256 µM; in assay [4], over 256 µM.
Take `Cc1ccc(S(=O)(=O)NC(=O)[C@]23CCC(C)(C)C[C@H]2C2=CC[C@@H]4[C@@]5(C)Cc6c([nH]c7cccc(C(=O)O)c67)C(C)(C)[C@@H]5CC[C@@]4(C)[C@]2(C)CC3)cc1`: the MIC in assay [1] is 4 µM (≈ 2.9 µg/mL); in assay [2], 4 µM (≈ 2.9 µg/mL); in assay [3], 1 µM (≈ 0.725 µg/mL); in assay [4] it was 4 µM (≈ 2.9 µg/mL).
As to `COc1ccc(S(=O)(=O)NC(=O)[C@]23CCC(C)(C)C[C@H]2C2=CC[C@@H]4[C@@]5(C)Cc6c([nH]c7cccc(C(=O)O)c67)C(C)(C)[C@@H]5CC[C@@]4(C)[C@]2(C)CC3)cc1`, the minimum inhibitory concentration (MIC) turned out to be 4 µM (≈ 2.96 µg/mL) in assay [1], 4 µM (≈ 2.96 µg/mL) in assay [2], 2 µM (≈ 1.48 µg/mL) in assay [3] and 8 µM (≈ 5.93 µg/mL) in assay [4].
Turning to `COc1ccc(S(=O)(=O)NC(=O)[C@]23CCC(C)(C)C[C@H]2C2=CC[C@@H]4[C@@]5(C)Cc6c([nH]c7ccc(C(=O)O)cc67)C(C)(C)[C@@H]5CC[C@@]4(C)[C@]2(C)CC3)cc1`, the MIC in assay [1] was 2 µM (≈ 1.48 µg/mL); in assay [2], 2 µM (≈ 1.48 µg/mL); in assay [3] it was 0.5 µM (≈ 0.371 µg/mL); in assay [4], 2 µM (≈ 1.48 µg/mL).
With `CC1(C)CC[C@]2(C(=O)Nc3ccc(-c4ccccc4)cc3)CC[C@]3(C)C(=CC[C@@H]4[C@@]5(C)Cc6c([nH]c7cc(C(=O)O)ccc67)C(C)(C)[C@@H]5CC[C@]43C)[C@@H]2C1`, the MIC in assay [1], in assay [2], in assay [3] and in assay [4] was over 256 µM in each case.
Regarding `CC1(C)CC[C@]2(C(=O)NS(=O)(=O)c3ccccc3)CC[C@]3(C)C(=CC[C@@H]4[C@@]5(C)Cc6c([nH]c7ccccc67)C(C)(C)[C@@H]5CC[C@]43C)[C@@H]2C1`, the MIC in assay [1], in assay [2], in assay [3] and in assay [4] was over 256 µM each time.
Take `CC1(C)CC[C@]2(C(=O)O)CC[C@]3(C)C(=CC[C@@H]4[C@@]5(C)CC[C@H](O)C(C)(C)[C@@H]5CC[C@]43C)[C@@H]2C1` [OLEANOLIC_ACID]: the MIC in assay [1], in assay [2], in assay [3] and in assay [4] was 32 µM (≈ 14.6 µg/mL) in each case.
On to `COc1ccc(S(=O)(=O)NC(=O)[C@]23CCC(C)(C)C[C@H]2C2=CC[C@@H]4[C@@]5(C)Cc6c([nH]c7c(C(=O)O)cccc67)C(C)(C)[C@@H]5CC[C@@]4(C)[C@]2(C)CC3)cc1`, for which the MIC in assay [1] was found to be 4 µM (≈ 2.96 µg/mL); in assay [2], 2 µM (≈ 1.48 µg/mL); in assay [3], 2 µM (≈ 1.48 µg/mL); in assay [4], 1 µM (≈ 0.741 µg/mL).
Consider `CC1(C)CC[C@]2(C(=O)NS(=O)(=O)c3ccccc3)CC[C@]3(C)C(=CC[C@@H]4[C@@]5(C)Cc6c([nH]c7ccc(F)cc67)C(C)(C)[C@@H]5CC[C@]43C)[C@@H]2C1`, for which the MIC in assay [1], in assay [2], in assay [3] and in assay [4] was over 256 µM in each case.
On to `CC1(C)CC[C@]2(C(=O)NS(=O)(=O)c3ccccc3)CC[C@]3(C)C(=CC[C@@H]4[C@@]5(C)Cc6c([nH]c7ccc(Br)cc67)C(C)(C)[C@@H]5CC[C@]43C)[C@@H]2C1`, for which the MIC in assay [1], in assay [2], in assay [3] and in assay [4] was over 256 µM each time.
For the compound `CN1CCN(C(=O)[C@]23CCC(C)(C)C[C@H]2C2=CC[C@@H]4[C@@]5(C)Cc6c([nH]c7ccc(C(=O)O)cc67)C(C)(C)[C@@H]5CC[C@@]4(C)[C@]2(C)CC3)CC1`, the MIC in assay [1], in assay [2], in assay [3] and in assay [4] was over 256 µM in each case.
Turning to `Cc1ccc(S(=O)(=O)NC(=O)[C@]23CCC(C)(C)C[C@H]2C2=CC[C@@H]4[C@@]5(C)Cc6c([nH]c7ccc(C(=O)O)cc67)C(C)(C)[C@@H]5CC[C@@]4(C)[C@]2(C)CC3)cc1`, the MIC came to 2 µM (≈ 1.45 µg/mL) in assay [1], 1 µM (≈ 0.725 µg/mL) in assay [2], 1 µM (≈ 0.725 µg/mL) in assay [3] and 1 µM (≈ 0.725 µg/mL) in assay [4].

The MIC is the lowest concentration that inhibits growth of the organism. High values mean a less susceptible organism, low ones a more susceptible organism.
